From patent US12208097B2, “Protein kinase C inhibitors for treatment of uveal melanoma” (NOVARTIS AG, priority 2017, dated 2025)

Key:
[1] = tested on: MP55 (GNA11mut/BAP1 null) uveal melanoma xenograft; assay: Patient derived uveal melanoma xenograft model MP55; format: in vivo, female SCID mice
Description: The anti-tumor activity and tolerability of Compound […]196) and the MDM2 inhibitor (Compound III or its salt thereof) was investigated in vivo using two patient derived uveal melanoma xenograft models, MP46 (GNAQmut) and MP55 (GNA11mut/BAP1 null). MP46 and MP55 uveal melanoma tumors were established in female SCID mice by subcutaneous implantation of 3×3×3 mm tumor fragments into the flank of each mouse. When tumors reached approximately 100 mm^3, mice were randomized according to tumor volume into treatment groups (n=8-10/group). Test agents were administered orally once (QD) or twice daily (BID) at the dose levels indicated. Tumor volumes of treatment groups are plotted from the time the treatment groups were randomized, and dosing commenced.

[2] = tested on: MP46 (GNAQmut) uveal melanoma xenograft; assay: Patient derived uveal melanoma xenograft model MP46; format: in vivo, female SCID mice; conditions: 35 days post dosing
Description: The anti-tumor activity and tolerability of Compound I (i.e., LXS196) and the MDM2 inhibitor (Compound III or its salt thereof) was investigated in vivo using two patient derived uveal melanoma xenograft models, MP46 (GNAQmut) and MP55 (GNA11mut/BAP1 null).
MP46 and MP55 uveal melanoma tumors were established in female SCID mice by subcutaneous implantation of 3×3×3 mm tumor fragments into the flank of each mouse. When tumors reached approximately 100 mm^3, mice were randomized according to tumor volume into treatment groups (n=8-10/group). Test agents were administered orally once (QD) or twice daily (BID) at the dose levels indicated. Tumor volumes of treatment groups are plotted from the time the treatment groups were randomized, and dosing commenced.

[3] = tested on: phosphorylated PKC delta (pPKC delta); assay: Phase I trial: target engagement in on-treatment tumor biopsies (pPKC delta); format: in vivo, human
Description: (§1) LXS196 led to reduction of phosphorylated myristoylated, alanine-rich C kinase substrate (pMARCKS) and phosphorylated PKC delta (pPKC delta), evident of target engagement in on-treatment tumor biopsies.

[4] = tested on: phosphorylated myristoylated, alanine-rich C kinase substrate (pMARCKS); assay: Phase I trial: target engagement in on-treatment tumor biopsies (pMARCKS); format: in vivo, human
Description: as §1

[5] = Phase I trial of Compound I in patients with metastatic uveal melanoma: safety, DLT, MTD/RDE; format: in vivo
Procedure: (§2) A phase 1, multicenter, open-label, single-arm study of Compound I was performed in patients with metastatic uveal melanoma. A Bayesian logistic regression model, employing the escalation with overdose control principle, was used to guide the dose escalation and to estimate the maximum tolerated dose (MTD)/recommended dose for expansion (RDE). Safety was described using incidence of adverse events (AEs) by relation and severity of the AE graded according to the Common Terminology Criteria for AEs (CTCAE, v4.03). Overall response rate was defined as per Response Evaluation Criteria in Solid Tumors (RECIST, v1.1).
(§3) Patients eligible for inclusion in this study have to meet all of the following key criteria: • Metastatic uveal melanoma (histologically or cytologically confirmed) that is judged to be progressive; patients may be treatment naive or have had any number of lines of prior therapy. • Measurable disease, defined as at least one lesion that can be accurately measured in at least one dimension (longest diameter to be recorded) as >20 mm with conventional techniques or as >10 mm with CT scan. • ECOG performance status ≤1
Patients eligible for this study must not meet any of the following criteria: • Malignant disease other than that being treated in this study • Symptomatic or untreated leptomeningeal or brain metastases or spinal cord compression. Treated brain metastases must have been stable for at least 1 month. • Impaired cardiac function or clinically significant cardiac diseases • Patients with abnormal laboratory values as defined by the protocol • Systemic anti-cancer therapy within 2 weeks of the first dose of study treatment. For cytotoxic agents that have major delayed toxicity, e.g. mitomycin C and nitrosoureas, and for anti-PD-1 or PD-L1 antibodies 4 weeks is indicated as the washout period. For patients receiving a CTLA-4 antagonist or vaccine as anticancer therapy, 6 weeks is indicated as the washout period. Patients must have recovered or stabilized from toxicities related to their previous treatment except for alopecia.
As of the data of Jun. 12, 2017, 55 patients received Compound I (i.e., LXS196) at doses ranging from 100 mg to 1000 mg once daily (QD; 38 patients or “pts”) and 200 mg to 400 mg twice daily (BID; 17 pts). Dose limiting toxicities (DLTs) were reported in 7 of 38 pts (QD schedule) and in 1 of 12 pts (BID schedule). The most common DLT was hypotension, manageable with LXS196 interruption and dose reduction. MTDs were determined at 500 mg QD and 400 mg BID. Due to better overall tolerability the RDE is 300 mg BID. Most common AEs (all grade, in ≥20% of pts) suspected related to LXS196 in pts across both schedules (n=55) were nausea (58.2%), diarrhea (32.7%), vomiting (25.5%), hypotension (25.5%), fatigue (20%) and asthenia (20%). The majority of GI and constitutional AEs were grade (gr) ½. Gr ¾ AEs suspected related to LXS196 were reported in 12 pts (21.8%), the most common being hypotension (10.9%). All other gr ¾ AEs occurred in ≤2 pts (3.6%) each.

[6] = tested on: metastatic uveal melanoma; assay: Phase I trial: tumor response per RECIST v1.1; format: in vivo, human; conditions: in 68 evaluable pts
Procedure: as §2, §3
In 68 evaluable pts, 6 had confirmed partial responses (PR) per RECIST v 1.1 (300 mg QD, 500 mg QD, 200 mg BID, 2 at 300 mg BID, 400 mg BID). A further 45 pts had stable disease as best overall response. […]

[7] = Phase I trial: pharmacokinetic (PK) studies; format: in vivo, human
Procedure: as §2, §1

[8] = tested on: UM cell lines; conditions: with RITA and Topotecan; cited from earlier work

## COc1cc2c(cc1OC(C)C)[C@H](c1ccc(Cl)cc1)N(c1ccc(N(C)C[C@H]3CC[C@H](N4CCN(C)C(=O)C4)CC3)cc1)C(=O)C2 [Compound III, (S)-1-(4-chloro-phenyl)-7-isopropoxy-6-methoxy-2-(4-{methyl-[4-(4-methyl-3-oxo-piperazin-1-yl)-trans-cyclohexylmethyl]-amino}-phenyl)-1,4-dihydro-2H-isoquinolin-3-one]
[1]; MP55, 100 mg/kg QD oral
  T/C: 20%
[2]; MP46, 100 mg/kg QD oral
  treatment/control (T/C): 39%

## CC1(N)CCN(c2cccnc2NC(=O)c2nc(-c3ncccc3C(F)(F)F)cnc2N)CC1 [LXS196, 3-amino-N-(3-(4-amino-4-methylpiperidin-1-yl)pyridin-2-yl)-6-(3-(trifluoromethyl)pyridin-2-yl)pyrazine-2-carboxamide]
[3]
  Effect on pPKC delta: reduction
[4]
  Effect on pMARCKS: reduction
[5]; human, in vivo
  AE asthenia, all grade, suspected related: 20%
  AE diarrhea, all grade, suspected related: 32.7%
  AE fatigue, all grade, suspected related: 20%
  AE hypotension, all grade, suspected related: 25.5%
  AE nausea, all grade, suspected related: 58.2%
  AE vomiting, all grade, suspected related: 25.5%
  All other gr ¾ AEs, each, number of patients: ≤ 2 pts
  All other gr ¾ AEs, each, share of patients: ≤ 3.6%
  Gr ¾ AEs suspected related, number of patients: 12 pts
  Gr ¾ AEs suspected related, share of patients: 21.8%
  Gr ¾ hypotension (most common gr ¾ AE): 10.9%
  Grade of the majority of GI and constitutional AEs: grade (gr) ½
  Most common DLT: hypotension
  RDE (recommended dose for expansion): 300 mg BID
[5]; once daily schedule
  MTD: 500 mg QD
[5]; twice daily schedule
  MTD: 400 mg BID
[6]
  Stable disease as best overall response: 45 pts
[6]; 300 mg QD, 500 mg QD, 200 mg BID, 2 at 300 mg BID, 400 mg BID
  Confirmed partial responses (PR) per RECIST v 1.1: 6 pts
[1]; MP55, 120 mg/kg BID oral
  T/C: 20%
[2]; MP46, 120 mg/kg BID oral
  regression: 63%
[7]; doses above 300 mg QD and 200 mg BID
  Exposure: in the efficacious range from preclinical projections
[7]; human, in vivo, oral, consistent across different doses, read-out: terminal T½ (converted)
  half-life: ~10 h
[7]; human, in vivo, post dose, patients, oral
  Tmax: ~1 h

## COc1ccc(C2=N[C@@H](c3ccc(Cl)cc3)[C@@H](c3ccc(Cl)cc3)N2C(=O)N2CCNC(=O)C2)c(OC(C)C)c1 [Nutlin-3]
[8]
  Combination effect on growth inhibition: synergistically
